The values that follow come from paper PMC8443859 (Journal of Traditional and Complementary Medicine, 2021).

The target in data set [1] is S1 domain of SARS-CoV-2 spike protein (Severe acute respiratory syndrome coronavirus 2, UniProt P0DTC2). Kind of data set: biochemical. The format is binding.
A further data set has as its system 293T cells. Kind of data set: Cell viability, MTT assay. The format is cell-based. The conditions noted are these: Homo sapiens, HEK-293T, 48 h, read-out: IC50 cell viability.
For data set [2], the system named is lentivirus particles pseudotyped (Vpp) with SARS-CoV-2 Spike protein. The data set can be described thus: organism not typed. The conditions noted are these: for inhibition at 10 µM: HEK-293T, read-out: inhibition of SARS-CoV-2 viral infection efficacy. The format is cell-based.
For another data set, the system named is measles virus. Conditions: Vero cells; cited from earlier work.
In data set [3] the test system is interaction between viral spike protein and ACE2 protein. Conditions: cited from earlier work.
Another data set relates to adenovirus. Conditions: 293 cells; cited from earlier work.
For data set [4] the following is noted: annotation, ref TDEC website; cited from earlier work.

*1 amine or outer side, *2 acyl side, *3 side chain or, on linkers, in order; H or OH if unused. Where a SMILES comes first, the peptide text is derived from it. Bridges are numbered along the chain shown (N, C = ends). Roman numbers before positions name the chains, in order. [ ]: non-standard residue; d: D form. Actinocin(9to1) = Cc1c2oc3c(C)ccc(C(=O)[*:1])c3nc-2c(C(=O)[*:2])c(N)c1=O; NMeV = CN[C@H](C(=O)O)C(C)C; Sar = CNCC(=O)O

As usually defined, the Kd is a measure of binding affinity in units of concentration. Low values mean higher affinity, high ones lower affinity. As usually defined, the IC50 is the concentration needed to halve the response being measured. In general, inhibition refers to the relative decrease from the control value, in per cent. On to `CC1=C(O)C(=O)C=C2C1=CC=C1[C@@]2(C)CC[C@@]2(C)[C@@H]3C[C@](C)(C(=O)O)CC[C@]3(C)CC[C@]12C` [Celastrol], for which, in data set [1], the “-TΔS” value is -199.1 kJ/mol, the “c (c value)” value was determined as 8.2, the “n (reaction stoichiometry)” value is listed as 1.409 and the ΔG is -32.92 kJ/mol. In data set [1], this molecule came in with a ΔH of 166.2 kJ/mol, a ΔS of 667.9 J/mol·K and a Kd of 1.71 µM. Further, the IC50 with 293T cells is 0.987 µM. Moreover, in data set [2], the inhibition at 10 µM lay in the range of 50 to 90%.
In the case of `Cc1c2oc3c(C)ccc(C(=O)N[C@@H]4C(=O)N[C@H](C(C)C)C(=O)N5CCC[C@H]5C(=O)N(C)CC(=O)N(C)[C@@H](C(C)C)C(=O)O[C@@H]4C)c3nc-2c(C(=O)N[C@@H]2C(=O)N[C@H](C(C)C)C(=O)N3CCC[C@H]3C(=O)N(C)CC(=O)N(C)[C@@H](C(C)C)C(=O)O[C@@H]2C)c(N)c1=O` [Actinomycin D] (I: T[dV]P[Sar][NMeV] / II: T[dV]P[Sar][NMeV]; ester I:1-I:C, II:1-II:C; linker I:N-II:N via Actinocin(9to1)), the “inhibition of measles virus replication and RNA synthesis” value in the data set with measles virus was “inhibit measles virus replication and RNA synthesis”.
As for `O=c1cc(-c2ccc(O)c(-c3c(O)cc(O)c4c(=O)cc(-c5ccc(O)cc5)oc34)c2)oc2cc(O)cc(O)c12` [Amentoflavone], in data set [1], the “-TΔS” value came to 51.48 kJ/mol, the “c (c value)” value stood at 6.4, the “n (reaction stoichiometry)” value amounted to 2.731 and the ΔH was -82.13 kJ/mol. The same molecule came in with a Kd in data set [1] of 4.27 µM. For the same molecule, the IC50 in the data set on 293T cells was greater than 100 µM. In data set [2], the inhibition at 10 µM lay within 50 to 90%.
In the case of `CC1(C)[C@@H](O[C@H]2O[C@H](C(=O)O)[C@@H](O)[C@H](O)[C@H]2O[C@@H]2O[C@H](C(=O)O)[C@@H](O)[C@H](O)[C@H]2O)CC[C@]2(C)[C@H]3C(=O)C=C4[C@@H]5C[C@@](C)(C(=O)O)CC[C@]5(C)CC[C@@]4(C)[C@]3(C)CC[C@@H]12` [Glycyrrhizic acid], the “inhibitory activity against spike-ACE2 interaction” value in data set [3] was “inhibitory activity against the interaction between viral spike protein and ACE2 protein”.
Turning to `C[C@@H]1CC[C@@]2(OC1)O[C@H]1C[C@H]3[C@@H]4CC=C5C[C@@H](O[C@@H]6O[C@H](CO)[C@@H](O[C@@H]7O[C@@H](C)[C@H](O)[C@@H](O)[C@H]7O)[C@H](O)[C@H]6O[C@@H]6O[C@@H](C)[C@H](O)[C@@H](O)[C@H]6O)CC[C@]5(C)[C@H]4CC[C@]3(C)[C@H]1[C@@H]2C` [Dioscin], in data set [1], the “c (c value)” value was found to be 117.3, the “n (reaction stoichiometry)” value is given as 5.488, the ΔG was -36.13 kJ/mol and the ΔS was determined as 110.6 J/mol·K. This molecule returned a Kd in data set [1] of 0.468 µM. Besides, the IC50 in the data set with 293T cells turned out to be 1.56 µM. Besides, in the data set with adenovirus, the “inhibition of adenovirus infection” value was “inhibit the initial stage of adenovirus infection”. The “inhibition of SARS-CoV-2 viral infection efficacy” value in data set [2] (10 µM) is given as “more than 80%”. Further, the “Water solubility, Solubility category” value in data set [4] is “Moderate”.
With `O=C1/C(=c2\c3ccccc3n3c(=O)c4ccccc4nc23)Nc2ccccc21` [Candidine], in data set [1], the “-TΔS” value came to 72.58 kJ/mol, the “n (reaction stoichiometry)” value is 0.115, the ΔG was -27.42 kJ/mol and the ΔH is -100 kJ/mol. In data set [1], this molecule showed a ΔS of −243.4 J/mol·K and a Kd of 15.7 µM.
On to `O=C1C(C2(C3(C4=Nc5ccccc5C4=O)Nc4ccccc4C3=O)Nc3ccccc3C2=O)=Nc2ccccc21` (stereo not shown) [Cephalinone D], for which, in data set [1], the “-TΔS” value is -9.972 kJ/mol, the “c (c value)” value is reported as 0.8, the “n (reaction stoichiometry)” value was found to be 0.333 and the ΔS is 33.45 J/mol·K.
